Test results published in patent US20110081662A1, “SCREENING METHODS FOR BONE MORPHOGENETIC MIMETICS” (THRASOS THERAPEUTICS, INC., priority 2000, published 2011).
Bridges are numbered along the chain shown (N, C = ends). Where no end group is shown, it is not given here.

Assays:
[1] = tested on: BMP-7 receptor-enriched plasma membrane fraction of ROS cells; test: Radio-ligand receptor assay (displacement of 125I-labeled BMP-7); type: binding, rat
Procedure: Radio-ligand receptor Assay: The receptor-binding activities of various BMP ligands (New York Public Health Labs, Albany, N.Y.) were determined by an equilibrium displacement binding isotherm assay using BMP-7 receptor-enriched plasma membrane fraction of ROS cells (ATCC 17-2.8) and ^125I-labeled BMP-7 (NEN, Billerica, Mass.) as ligand. Purified BMP-7 was radio-iodinated BMP-7 to a specific activity of 70-78 uCi/ug by a modified procedure of lactoperoxidase method (Schneyer, A. L., et al., Endocrinology 119, 1446-1453 (1986)). The percent bindability of radioiodinated BMP-7 to excess receptor is 30-37%. Receptors from ROS cells are obtained by a procedure previously described (Dattatreyamurty, B., et al., (1986) J. Biol. Chem. 261.). […] In a typical assay, fixed amounts of ^125I-labeled sol. BMP-7 (−80.000 cpm) were incubated with a fixed amount of receptor-enriched plasma membrane fraction in the presence (5 ug. for non-specific binding) or absence of excess unlabeled BMP-7 (for total binding). Displacement curves were generated with increasing concentrations of BMP-7 standard preparation (5-2000 ng). The assay incubations were carried out in a reaction volume of 300 μl with shaking for 22 hrs. at 4° C. Bound and unbound ^125I-labeled BMP-7 were separated by centrifugation (30,500×g. 30 minutes). The supernatants were aspirated and pellets washed before counting in a gamma counter (Packard Instr. Downers Grove, Ill.). The concentration of test agent required to give 50% inhibition of total specific binding of ^125I-labeled BMP-7 ^(ED50^) was calculated from competitive data.

[2] = tested on: BMP-7 induced and basal alkaline phosphatase activity in ROS cells (rat Osteosarcoma 17/2.8); test: ROS cell based alkaline phosphatase assay; conditions: for IC50: peptide together with BMP-7 (1.33 nM), ROS cells, 2 days, read-out: peptide concentration giving 50% inhibition of cellular responsiveness to BMP-7
Procedure: ROS Cell Based Alkaline Phosphatase Assays: BMP-7 and test agents that bind BMP-7 receptors were analyzed by in vitro bioassay. This assay defines the role of these test agents at the receptor-binding site. It is believed that some of the test agents can effectively interact with receptors and inhibit BMP-7 induced target cell responsiveness, thereby acting as functional antagonists. Alternatively, these agents may mimic BMP-7 functions inducing alkaline phosphatase activity in ROS cells, thus acting as functional agonists. An assay procedure as described by Maliakal, J. C., et al., Growth Factors 11, 227-234, (1994) determined the biological activities of BMP-7 peptides. In a typical experiment, rat Osteosarcoma (17/2.8) cells were plated in 96 well plates (3.0×10^4 cells/well) and incubated overnight at 37 C in 5-6% CO2 incubator. Next day, the plates were examined to make sure that cells are healthy & confluent. Cells were treated with increasing concentrations of BMP-7 standard (1-10,000 ng/ml) or test agents (0.02-200 μM) or appropriate concentrations of test agent alone or with BMP-7 standard prepared in medium containing 1% FBS and incubated for 2 days at 37 C in 5-6% CO2 incubator. The cellular content of alkaline phosphatase activity was determined by the method of Reddi, A. H. & Huggins, C. B. Proc. Natl. Acad. Sci. USA 69, 1601-1605 (1972). Enzyme estimations were routinely carried out in 96 well plates. Following removal of culture medium, cells were washed with pre-warmed PBS (150 μl) and further incubated in 100 μl of pre-warmed 1% Triton X-100 for 30 minutes at 37 C. Plates were centrifuged for 10 minutes at full speed, and recovered samples (each 15 μl) were assayed for enzyme activity by adding 90 μl p-nitrophenyl phosphate (Sigma, St. Louis, Mo.) as a substrate in 0.05 M glycine-NaOH buffer, pH 9.3 and incubating for 20 minutes at 37 C. The reaction was stopped by adding 75 ul of 0.2 N NaOH/well and absorbance at 405/490 nm is measured on a Dynatech MR 700 plate reader (Dynatech Laboratories, U.K.). Results are expressed as concentration of peptide/small molecule inhibitor (with antagonist activity) required to give 50% inhibition of maximum response to BMP-7 standard. The activities of test agents that stimulate cell responsiveness (with agonist activity), are expressed relative to BMP-7 standard.

ECD of daf-4 receptor = target: T1, ECD of daf-4 receptor (Caenorhabditis elegans, UniProt P50488); test: Type II receptor-based HTS rapid solid-phase assay; type: binding, C. elegans; conditions: ECD immobilized on PVDF membrane, 18 h, room temperature
T1 construct: 1 includes additional portions on the N and C terminus; made in house; host or cells: transfected DHFR(-) CHO cell line PJ511.9.8, purified from conditioned medium
T1 sequence (P50488 with tags, fused parts or gaps): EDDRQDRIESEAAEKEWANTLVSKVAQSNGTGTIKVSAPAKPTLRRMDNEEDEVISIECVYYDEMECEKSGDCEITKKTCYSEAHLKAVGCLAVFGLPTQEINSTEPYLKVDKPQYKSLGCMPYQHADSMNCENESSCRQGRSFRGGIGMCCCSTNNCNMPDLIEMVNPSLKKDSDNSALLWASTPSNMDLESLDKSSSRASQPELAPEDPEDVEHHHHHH
From the text: Preparation of type II Receptor ECD: Highly purified extracellular domain (ECD) of the type II receptor daf-4 was used in this assay. The ECD of the daf-4 receptor was cloned and vectors (pCMV5 expression vectors, daf-4 sequence including the mammalian consensus start site and the hexa-histidine sequence tag) are constructed for the expression of this molecule in mammalian cells. In this construct, the ECD has been linked to a hexa-Histadine sequence tag for subsequent purification and detection. The transfected DHFR(−) CHO cell line PJ511.9.8 has been used for the daf-4 expression as outlined below. This cloning method can also be utilized with other bone morphogenetic proteins.
Purification of daf-4 ECD: A purification protocol to process large volumes of conditioned media (3.5 L/week) was developed. The procedure involves initial isolation of daf-4 ECD by using Talon (Pharmacia Tech.) Immobilized metal affinity column. As daf-4 ECD protein is linked to a hexa-His sequence, the protein is bound to the metal affinity column and is subsequently eluted by imidazoic ([…]) containing buffer. […] The purified preparation was analyzed by reversed phase HPLC. […]
HTS assay procedure: BMP-7 binding activity was determined by a rapid solid-phase assay using ^125I-labeled BMP-7 as ligand and highly purified ECD of daf-4 as type II receptor. […]

daf-4 ECD = target: T2, daf-4 ECD (Caenorhabditis elegans, UniProt P50488); test: BMP binding to purified daf-4 ECD (ligand blot, Scatchard analysis); design: species or system C. elegans
T2 construct: 1 includes additional portions on the N and C terminus; made in house; host or cells: transfected DHFR(-) CHO cell line PJ511.9.8, purified from conditioned medium
T2 sequence (P50488 with tags, fused parts or gaps): T1 sequence (P50488 with tags, fused parts or gaps)
From the text: A novel ligand-blot technique was developed to evaluate the binding of BMP-7 to the purified daf-4 ECD.

[3] = lower peptide concentrations (0.6-60 μM)

| Substance | effect on basal cell responsiveness (basal alkaline phosphatase activity) ([2]; peptide alone) | behaviour of peptide on BMP-7 induced cell responsiveness ([2]; peptide together with BMP-7) | IC50 [2] [µM] | further results |
| --- | --- | --- | --- | --- |
| CFRDLGWQDWIIAPC, SEQ I.D NO. 4; 15 residue peptide cyclized at the ends (disulfide 1-15 (inferred); listed as Homo sapiens) [Peptide F1-2] | weakly inhibiting | antagonist | 10 | activity in radioligand receptor assay [1]: relatively weak activity; concentration required to inhibit the binding of 125I-labeled BMP-7 to the receptor ([1]; ROS cell plasma membranes): 179 µM |
| CYFDDSSNVIC SEQ I.D NO. 7; 9 residues, ends cyclized (disulfide 1-11 (inferred); listed as Homo sapiens) [Peptide F2-2] | – | – | – | effect on responsiveness to BMP-7 at higher concentrations ([2]; higher peptide concentrations (above 0.6-60 μM)): inhibited; behaviour of peptide on BMP-7 induced cell responsiveness at lower concentrations [2, 3]: weak agonist; potentiation of BMP-7 induced cell responsiveness [2, 3]: 20% |
| CYFDDSSNVICKKYRS, SEQ I.D NO. 9; 11 residue loop with 5 residue C-terminal extension (disulfide 1-11; listed as Homo sapiens) [Peptide F2-3] | no significant effect | agonistic | – | percent increase in BMP-7 response (relative to the absence of peptide) ([2]; peptide 0.01 μM, sub-maximal BMP-7, P<0.001): 53%; percent increase in BMP-7 response (relative to the absence of peptide) ([2]; peptide 0.1 μM, sub-maximal BMP-7, P=0.007): 54%; percent increase in BMP-7 response (relative to the absence of peptide) ([2]; peptide 1 μM, sub-maximal BMP-7, P=0.01): 48%; inhibition of 125I-labeled BMP-7 binding to the ECD of daf-4 receptor (ECD of daf-4 receptor): 75% |
| CELYVSFRDLGWQDWIIAPEGYAAYC, SEQ I.D NO. 3; BMP-7 finger 1 peptide with cyclized ends (disulfide 1-26 (inferred); listed as Homo sapiens) [Peptide F1-1] | – | antagonist | 20 | peptide concentration effective to inhibit basal cellular responsiveness ([2]; peptide alone): 52 to 260 µM |
| CLNAISVLYFDDSSNVILKKYRNMVVRC, SEQ ID NO. 10; cyclized (disulfide 1-28 (inferred); listed as Homo sapiens) [Peptide F2-1] | effectively inhibited | effectively inhibited | 8 | – |
| F2-2c: CIVNSSDDFYC SEQ I.D NO. 8; control peptide, residues of F2-2 in reverse order (disulfide 1-11 (inferred); listed as Homo sapiens) [Peptide F2-2c, reference compound] | no effect | no effect | – | activity in radioligand receptor assay [1]: inactive |
| CCFINPETVCC, SEQ I.D NO. 6; cyclized (disulfide (positions not given here); also: cyclized (mode not given here); listed as Homo sapiens) [Peptide H-2C] | inhibiting | antagonist | 5 | effect on binding of 125I-labeled BMP-7 to the receptor ([1]; peptide at 8 μM): potentiated |
| BMP-4: bone morphogenetic protein | – | – | – | binding to extracellular domain of daf-4 (daf-4 ECD): readily binds |
| H-1: CAFPLNSYMNATNHAIVQTLVHFINPETVPKC SEQ ID NO 5; heel peptide, cyclized (disulfide 1-32 (inferred); listed as Homo sapiens) [Peptide H-1] | effective only at very high concentrations | weak antagonist | – | concentrations required to inhibit the BMP-7 induced cell response ([2]; peptide together with BMP-7): 44 to 220 µM |
